Entries after “also recorded” stand apart in the source; their conditions may differ.
Experiments:
[1] = test system: fetal islet β cells; experiment: Global cell death / mortality of cultured fetal islets (ethidium bromide permeability); type: cell-based; conditions: SNP (100 μmol/l); pre-treated with taurine 0.3 or 3 mmol/l; both diet groups; dose dependent
Experimental: Global cell death. Global cell death was analysed using a non-specific staining permeant probe. For this purpose, the culture medium was removed and the dishes were incubated in the dark with 1 ml of 20 μg/ml ethidium bromide for 20 min to stain permeabilized dead cells. The cultures were then fixed with 4% paraformaldehyde in PBS for 10 min, treated with 30% methanol for permeabilization of the remaining of the cells and then mounted in mowiol containing 20 μg/ml of Hoechst 33342, to stain the nuclei.
Physiological and supraphysiological levels of each amino acid were tested. Taurine, if present was either 0.3 mmol/l (physiological) or 3 mmol/l (supraphysiological); methionine, if present was either 0.1 mmol/l (physiological) or 1 mmol/l (supraphysiological); and β-alanine, if present was either 0.3 mmol/l (physiological) or 3 mmol/l (supraphysiological). Supplemental amino acid levels were maintained in the culture medium during SNP treatment. […] Apoptosis was quantified by confocal microscopy using the TUNEL method described in Example 1. Mortality rate was quantified by confocal microscopy using permeant probes, as described in Example 1, to verify quantification of apoptotic rate for both C and LP diet treatments including SNP and taurine.

[2] = taurine 0.3 mmol/l or 3 mmol/l; acellular
Experimental: (§1) Nitric oxide is a reactive free radical which leads to peroxynitrite formation, another reactive free radical, by interaction with superoxide (NO+OO^−→ONOO^−). […] Luminol-derived chemiluminescence induced by peroxynitrite produced by the decomposition of sydnonimine (SIN-1) was evaluated to investigate the possibility that taurine quenched the peroxynitrite formed from NO.

[3] = 3 mmol/l taurine; SIN-1
Experimental: Chemiluminescence measurements. Luminol (5-amino-2,3-dihydro-1-4-phtalazinedione) at 400 μmol/l (Sigma Chemical Co.), taurine (0.3 or 3 mmol/l), methionine (0.1 or 1 mmol/l) and β-alanine (0.3 or 3 mmol/l) stock solutions were prepared in PBS. Sydnonimine (SIN-1), also known as 3-morpholinosydnonimine, a source of peroxynitrite, was purchased from Sigma Chemical Co. SIN-1 was prepared as 100 μmol in 1 mol/l NaOH. A reaction was initiated by simultaneous injection of luminol and SIN-1 into wells containing PBS either alone or with supplemental amino acid levels as noted above. Chemiluminescence emitted by luminol in the presence of peroxynitrite was measured every 30 seconds over 20 minutes in a chemifluorophotometer (MicroLumat LB96P, EG&G BERTHOLD), and was quantified as light intensity (10^8 RLU).
as §1

[4] = test system: fetal islet cells; experiment: IL1β-induced apoptosis in cultured fetal islets (TUNEL); type: cell-based, Wistar rats; conditions: IL1β 50 U/ml
Experimental: The effect of in vitro taurine on the effect of IL1β-induced apoptosis was assessed. Fetal islets were isolated as described above in Example 1. On the 5th day of culture, islets were rinsed twice with serum free DME/F12 medium (1:1, v/v, Gibco, Paisley, Scotland) and were incubated in this medium supplemented with taurine at 0.3 or 3 mmol/l for 48 hours. For the final 24 hours of this incubation, IL1β (Endogen, Woburn, Mass.) was added to the incubation medium at a level of 50 U/ml. Apoptosis was quantified by confocal microscopy using TUNEL method, as outlined in Example 1.

[5] = test system: islet cells; experiment: Islet cell apoptosis with maternal dietary taurine supplementation (TUNEL); type: in vivo, Wistar rats
Experimental: Animals and diets were prepared, and taurine supplementation in drinking water was conducted as described in Example 7. Islet cells were cultured and treated as described in Example 1. Islet cell apoptosis was determined using the TUNEL method, as described by […] et al., (Endocrinology 1999;140: 4861-4873). Four developmental stages were evaluated, namely: fetal day 21.5 ([…].5) or post-natal day 12 (PN12), 14 (PN14) or 30 (PN30).

[6] = test system: Fas ligand; experiment: Islet Fas ligand immunoreactivity with dietary taurine supplementation; type: in vivo, Wistar rats; conditions: post-natal day 14
Experimental: (§2) Animals and diets were prepared as described in Example 8. The pancreas was removed, and the presence of Fas, Fas ligand, inducible nitric oxide synthase (iNOS) and vascular endothelial growth factor (VEGF) were evaluated in pancreatic sections using immunoreactivity.

[7] = test system: iNOS; experiment: Islet iNOS immunoreactivity with dietary taurine supplementation; type: in vivo, Wistar rats; conditions: all stages
Experimental: as §2

[8] = test system: VEGF; experiment: Pancreatic VEGF immunoreactivity with dietary taurine supplementation; type: in vivo, Wistar rats; conditions: decrease by low protein diet; regardless of developmental stage
Experimental: as §2

[9] = test system: NOD mice; experiment: Insulitis in NOD mice at 12 weeks after taurine in maternal drinking water (pregnancy and lactation); type: in vivo; conditions: for reduction of incidence of insulitis: 12 weeks of age, vs control animals
Description: Pregnant NOD mice were maintained on a control diet either with or without taurine supplementation in the drinking water throughout pregnancy and lactation. Supplementation of taurine was stopped after weaning. At 12 weeks of age the animals were killed and examined for histological evidence of insulitis within the pancreatic islets. Mice which were examined and found to have evidence of insulitis, were then further scored as peri-islet (slight), less than 50% area of islet (medium) or more than 50% islet area (heavy), as indicative of the stage and/or severity of insulitis.

[10] = test system: NOD mice; experiment: Onset of diabetes (glucosurea) in female NOD offspring after maternal taurine supplementation; type: in vivo
Description: Pregnant NOD mice were obtained and maintained on a control diet as described in Example 13. Pregnant mice were either supplemented with taurine in the drinking water (n=51) or were unsupplemented (n=37) throughout pregnancy. The supplemented group received taurine at a concentration of 2.5% (w/v) in drinking water. Considering the average amount of water consumed, this is equivalent to a taurine consumption of about 0.75 g/day per animal. Taurine supplementation ceased post-partum, and offspring were allowed to nurse for 21 days. […] Onset of diabetes was determined by the appearance of glucosurea which was assessed using glucose detection sticks.

[11] = test system: NOD mice; experiment: Gestational taurine supplementation in NOD mice: diabetes onset, insulitis and endocrine pancreas development; type: in vivo
Description: Pregnant NOD mice (maintained as in Example 13) were supplemented with 2.5% of taurine in drinking water during gestation. Pups were either sacrificed at 14 days of age, and pancreata were collected and fixed for histology as depicted in FIG. 16, or followed until glucosurea was apparent.

NCCS(=O)(=O)O [taurine, 2-aminoethylsulfonic acid]
mortality after treatment with SNP, percentage of cell death [1]: significantly diminished
concentration of NO released in the presence of SNP [2]: not significantly altered
luminol chemiluminescence (peroxynitrite quenching) [3]: dramatically decreased
rate of IL1β-induced apoptosis in islet cells ([4]; C diet group, only the high dose of taurine (3 mmol/l)): decreased significantly
number of islet cells positive for IL1β-induced apoptosis ([4]; LP diet group, taurine 0.3 mmol/l and 3.0 mmol/l): significantly decreased
islet cell apoptosis ([5]; LP+Taurine vs control group (C), F21.5, PN12, PN14, PN30): either no difference, or a reduction in apoptosis compared to the control group
islet cell apoptosis ([5]; protein-sufficient (C) animals supplemented with taurine, post-natal days 12 and 14): reduction in apoptosis
Fas ligand presence in islets [6]: reduced
iNOS immunoreactivity [7]: no effect
VEGF immunoreactivity in the pancreas [8]: reverses the effect
proportion of individual islets showing no incidence of insulitis ([9]; female animals exhibiting insulitis, C+Taurine (65% in control diet group)): approximately 50%
severity of insulitis when it occurs ([9]; female mice exhibiting insulitis, 12 weeks): not lessened
reduction of incidence of insulitis ([9]; female mice): 80%
reduction of incidence of insulitis ([9]; male mice): 60%
proportion of female offspring showing diabetes ([10]; at 25 weeks, maternal taurine 2.5% (w/v) in drinking water during pregnancy): about half
proportion of taurine-supplemented group still not diabetic ([10]; at 50 weeks): about 10%
proportion of IGF-II-immunoreactive islet cells ([11]; 14 days of age, p<0.01): greater proportion
mean islet area ([11]; 14 days of age, p<0.05): significantly smaller
proportion of proliferating islet cells ([11]; 14 days of age, p<0.05): greater proportion
number of apoptotic cells in islets ([11]; NOD female mice, 14 days of age, vs control animals): reduced nearly in half; also recorded: less apoptotic cells
survival ([11]; female and male NOD mice, Log Rank and Wilcoxon tests): improved survival
reduction of insulitis ([11]; insulitis appearing at 8 weeks, 2.5% taurine in drinking water during gestation): 90%
insulin/glucagon ratio ([11]; small islets, NOD female mice): No difference
percentage of PCNA positive cells (cell proliferation) ([11]; small islets, NOD female mice): significant increase
percentage of area stained for glucagon (alpha cells) ([11]; small islets, NOD female mice): significantly increased
percentage of area stained for insulin (β mass) ([11]; small islets, NOD female mice): significant increase
age by which 50% of mice became diabetic ([11]; taurine treatment n=51, controls 16 weeks, p<0.001): 26 weeks
